In patent US20100069854A1, “Elastomeric Devices Containing Chlorhexidine/Fatty Acid Salts Made From Fatty Acids of 12 to 18 Carbons” (priority 2008, published 2010):

Key:
[1] = 90% THF+10% Methanol
Text: Chlorhexidine diacetate, Chlorhexidine dodecanoate and chlorhexidine palmitate were loaded into silicone tubing by first dissolving the chlorhexidine salt in a 90% THF+10% Methanol solution. The tubing was then immersed in this solution for one day where it swelled and chlorhexidine salt diffused into the polymer matrix. The impregnated piece of tubing was removed and then vacuum dried to remove all volatile solvent.

[2] = system: Candida albicans ATCC 10231; test: Zone of inhibition assay with impregnated polyurethane foam discs; type: cell-based
Method: To evaluate antimicrobial properties of polyurethane foam samples infused with the various chlorhexidine/fatty acid salts, a zone of inhibition assay was performed. In this assay, 1.4% (w/v) of chlorhexidine acetate, chlorhexidine caprate, chlorhexidine laurate, chlorhexidine myristate, chlorhexidine palmitate and chlorhexidine stearate solutions in methanol were prepared. A supply of 8 mm discs were punched out of a sheet of polyurethane foam (Rynel medical grade polyurethane foam) with biopsy punches (Miltex Kai). Several discs were placed in each of six 50 ml centrifuge tubes. Approximately 5 ml of each of the different methanol/chlorhexidine/fatty acid salt solutions was added to each respective tube. The discs were centrifuged for 5 minutes to remove any air bubbles and soaked for 1 hr to infuse the foam discs with the respective chlorhexidine/fatty acid salt. Infused discs were transferred to clean centrifuge tubes and vacuum dried at 25° C. for 24 hrs to remove any residual solvents. Initial concentrations of salts, impregnated into the punches, were determined by dissolving the impregnated foams and by high pressure liquid chromatography (HPLC) analysis using an Agilent Eclipse XDB-CN 3u 4.6×150 mm column with initial mobile phase=65% DI water/0.2% trifluoroacetic acid (TFA): 35% Acetonitrile/0.2% TFA. Chlorhexidine absorbance was read at 253 nm and concentration was calculated via a chlorhexidine calibration curve. […] To perform the zone of inhibition assay on the impregnated polyurethane foam discs, agar plates were prepared by mixing 11 g Mueller-Hinton cation-adjusted broth and 1.5 g agarose in 500 ml DI water. The agar was autoclaved for 15 minutes at 121° C., 15 psi. 10 ml of the still hot, liquid agar was pipetted onto petri dishes. The challenge organism, Candida albicans ATCC 10231, was cultivated in Trypticase soy broth, standard microbiological growth medium (TSB). Sterile cotton swabs were dipped into the undiluted culture and the plated agar was fully inoculated with swabs. The 8 mm polyurethane foam discs were transferred daily to a freshly inoculated agar for 9 days. The zone of inhibition (ZOI) was measured using calipers. Actual ZOI was measured by subtracting the diameter of the foam (when wet) from the zone measured and dividing by 2. The results are presented in Table 6, with a graphical representation of the ZOI in FIG. 2;

[3] = system: Pseudomonas aeruginosa ATCC 27853; test: Basic broth adherence assay on coated polyurethane tubes; type: cell-based
Method: The antimicrobial effectiveness of the coated samples was subjected to different durations of DI water extraction by basic broth adherence assay. For each chlorhexidine/fatty acid salt tested, 3 samples of coated tubing were prepared and assayed. To prepare the inoculum, a culture of Pseudomonas aeruginosa ATCC 27853 was used to challenge the coated polyurethane tubes and controls. The negative control used was a length of uncoated polyurethane tube. The challenge microorganism suspension was prepared as follows: approximately three colonies were removed from a secondary working culture plated on Trypticase Soy Agar (TSA) (BD-Falcon) with 5% sheep's blood and added to 10 ml of Trypticase Soy Broth (TSB). The vial was vortexed for approximately 30 seconds and incubated for 4 hours at 37° C. at 100 rpm. Following incubation, the vial was removed and vortexed. The optical density of the organism suspension was read. The inoculum was then diluted in TSB to a concentration of 5×10^4 colony forming units per milliliter (CFU/mL). This concentration was confirmed by the Miles and Misra drop count method.
The basic broth adherence assay was performed in a 96 well micro titer plate. To each well of the micro titer plate containing either a test article or a control, 900 μl of TSB was added. To this, 100 μl of the adjusted inoculum was added (Note: Due to the 1/10 dilution per well, the starting inoculum concentration of each organism was […] for Pseudomonas aeruginosa). The micro titer plates were then sealed via parafilm® around the edges and wrapped in foil to avoid evaporation of liquid and light contact with the samples. The plates were then placed inside a shaker incubator set at 37° C. and 100 rpm for 24 hours. Incubation at 37° C. then continued until the elapse of 7 days, 14 days, and 21 days, respectively, for each of the 3 samples prepared for each chlorhexidine/fatty acid salt.
At the completion of the respective incubation periods, the samples were rinsed, sonicated, the sonicate was plated and adherence was evaluated. More particularly, following incubation, all samples and controls were dip-rinsed twice in phosphate buffered saline (PBS) to remove the surrounding media. After rinsing, test articles were sonicated in micro titer plate wells containing 1 mL of Dey-Engley (DE) neutralizing broth (Difco). The sonication liquid was then serially diluted, and plated onto the surface of DE neutralizing agar. Plates were incubated at 37° C. for 24 to 48 hours and colonies were counted. Recovery counts were recorded as CFU/mL.

[4] = Incorporation of chlorhexidine salts into silicone tubing (swelling impregnation, extraction, HPLC); type: physicochemical; details: one day, equivalent mass of chlorhexidine base extracted;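 also: columns differ by chlorhexidine salt concentration in the impregnation solution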
Method: Chlorhexidine diacetate, Chlorhexidine dodecanoate and chlorhexidine palmitate were loaded into silicone tubing by first dissolving the chlorhexidine salt in a 90% THF+10% Methanol solution.
Impregnated chlorhexidine was extracted from the tubing by immersing in an excess of THF to fully swell it and then adding an equal volume of water to extract the chlorhexidine salt. The quantity of chlorhexidine was determined by previously enumerated HPLC method. It is reported below for different concentration impregnation solutions in terms of the equivalent mass of chlorhexidine base extracted: […]

## N=C(NCCCCCCNC(=N)NC(=N)Nc1ccc(Cl)cc1)NC(=N)Nc1ccc(Cl)cc1.Nc1ccc(P(=O)(O)O)cc1.Nc1ccc(P(=O)(O)O)cc1 [Chlorhexidine Palmitate, chlorhexidine dipalmitate]
[1]
  Solubility in the swelling impregnation solvent mixture (in words): soluble at higher concentrations
[2]; Day 1, daily transfer to fresh agar
  ZOI produced by impregnated polyurethane foam punches against Candida albicans: 14 mm
[2]; Day 2, daily transfer to fresh agar
  ZOI produced by impregnated polyurethane foam punches against Candida albicans: 21 mm
[2]; Day 3, daily transfer to fresh agar
  ZOI produced by impregnated polyurethane foam punches against Candida albicans: 19 mm
[2]; Day 4, daily transfer to fresh agar
  ZOI produced by impregnated polyurethane foam punches against Candida albicans: 14 mm
[2]; Day 7, daily transfer to fresh agar
  ZOI produced by impregnated polyurethane foam punches against Candida albicans: 11 mm
[2]; Day 8, daily transfer to fresh agar
  ZOI produced by impregnated polyurethane foam punches against Candida albicans: 14 mm
[2]; Day 9, daily transfer to fresh agar
  ZOI produced by impregnated polyurethane foam punches against Candida albicans: 15 mm
[3]; 7 days
  Log10 reduction of adhered Pseudomonas aeruginosa onto the surface of coated polyurethane tubes: 7
[3]; 14 days
  Log10 reduction of adhered Pseudomonas aeruginosa onto the surface of coated polyurethane tubes: 7
[3]; 21 days
  Log10 reduction of adhered Pseudomonas aeruginosa onto the surface of coated polyurethane tubes: 7
[4]; 1% impregnation solution in 90% THF+10% Methanol
  Salt content in silicone elastomeric medical article: 133 µg/cm
[4]; 3% impregnation solution in 90% THF+10% Methanol
  Salt content in silicone elastomeric medical article: 205 µg/cm
[4]; 6% impregnation solution in 90% THF+10% Methanol
  Salt content in silicone elastomeric medical article: 356 µg/cm
[4]; 10% impregnation solution in 90% THF+10% Methanol
  Salt content in silicone elastomeric medical article: 366 µg/cm
[4]; 20% impregnation solution in 90% THF+10% Methanol
  Salt content in silicone elastomeric medical article: 407 µg/cm
